Laboratory results reported in patent US10604526B2, “Chemokine receptor modulators and uses thereof” (RAPT THERAPEUTICS, INC., priority 2016, dated 2020).

Target: T1, hCCR4 (Homo sapiens, UniProt P51679)
T1 sequence (P51679 1-360): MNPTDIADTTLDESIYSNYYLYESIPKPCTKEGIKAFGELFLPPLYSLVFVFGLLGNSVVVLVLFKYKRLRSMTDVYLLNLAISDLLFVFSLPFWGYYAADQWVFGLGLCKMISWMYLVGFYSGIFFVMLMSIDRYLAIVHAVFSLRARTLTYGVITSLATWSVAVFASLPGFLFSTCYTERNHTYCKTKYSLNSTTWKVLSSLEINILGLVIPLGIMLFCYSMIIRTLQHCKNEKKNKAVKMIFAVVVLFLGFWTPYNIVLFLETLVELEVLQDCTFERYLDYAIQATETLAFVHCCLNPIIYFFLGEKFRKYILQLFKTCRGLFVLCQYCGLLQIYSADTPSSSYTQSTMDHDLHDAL
Test: Calcium flux assay
Assay type: cell-based
Conditions: Chem5-hCCR4 cells, CCL22 at EC80 of 1.5 nM, FLIPR Calcium 6 dye; read-out: Potency (IC50)
How it was run: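 Chem5 cells expressing hCCR4 were serum-starved for 2 h, loaded with Calcium 6 dye plus 2.5 mM probenecid, then given compound for 1 h at 37 °C (0.5% DMSO). CCL22 was added from a 7.5 nM working solution (5× EC80 of 1.5 nM). IC50 came from ΔF/Fmin (485/525 nm) by 4-parameter fit.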

Row | IC50 | SMILES
1 | < 100 nM | C[C@H](c1ccc(Cl)cc1Cl)n1nc(C#N)c2ncc(N3CC([C@H]4CCCN(CCCS(N)(=O)=O)C4)C3)nc21 (single isomer, unassigned) [Example 107]
2 | 100 to 500 nM | C[C@H](c1ccc(Cl)cc1Cl)n1nc(C#N)c2ncc(N3CC([C@@H]4CCCN(CCCS(N)(=O)=O)C4)C3)nc21 (single isomer, unassigned) [Example 108]
3 | < 100 nM | CC(C)S(=O)(=O)NCCN1CCC[C@H](C2CN(c3cnc4c(C(F)(F)F)nn([C@H](C)c5ccc(Cl)cc5Cl)c4n3)C2)C1 (single isomer, unassigned) [Example 109]
4 | 100 to 500 nM | CC(C)S(=O)(=O)NCCN1CCC[C@@H](C2CN(c3cnc4c(C(F)(F)F)nn([C@H](C)c5ccc(Cl)cc5Cl)c4n3)C2)C1 (single isomer, unassigned) [Example 110]
5 | 100 to 500 nM | C[C@H](c1ccc(Cl)cc1Cl)n1nc(C#N)c2ncc(N3CC([C@@H]4CCCN(Cc5cnc[nH]5)C4)C3)nc21 (single isomer, unassigned) [Example 111]
6 | < 100 nM | C[C@H](c1ccc(Cl)cc1Cl)n1nc(C#N)c2ncc(N3CC([C@H]4CCCN(Cc5cnc[nH]5)C4)C3)nc21 (single isomer, unassigned) [Example 112]
7 | 100 to 500 nM | Cc1nn([C@H](C)c2ccc(Cl)cc2Cl)c2nc(N3CC([C@@H]4CCCN(CCCS(C)(=O)=O)C4)C3)cnc12 (single isomer, unassigned) [Example 113]
8 | < 100 nM | Cc1nn([C@H](C)c2ccc(Cl)cc2Cl)c2nc(N3CC([C@H]4CCCN(CCCS(C)(=O)=O)C4)C3)cnc12 (single isomer, unassigned) [Example 114]
9 | 100 to 500 nM | C[C@H](c1ccc(Cl)cc1Cl)n1nc(C(F)(F)F)c2ncc(N3CC([C@@H]4CCCN(CCCS(C)(=O)=O)C4)C3)nc21 (single isomer, unassigned) [Example 115]
10 | < 100 nM | C[C@H](c1ccc(Cl)cc1Cl)n1nc(C(F)(F)F)c2ncc(N3CC([C@H]4CCCN(CCCS(C)(=O)=O)C4)C3)nc21 (single isomer, unassigned) [Example 116]
11 | < 100 nM | C[C@H](c1ccc(Cl)cc1F)n1nc(C#N)c2ncc(N3CC([C@H]4CCCN(CCO)C4)C3)nc21 [Example 55, 1-((R)-1-(4-chloro-2-fluorophenyl)ethyl)-6-(3-((R)-1-(2-hydroxyethyl)piperidin-3-yl)azetidin-1-yl)-1H-pyrazolo[3,4-b]pyrazine-3-carbonitrile]
12 | 100 to 500 nM | CC(C)N1CCC[C@H](C2CN(c3cnc4c(C(F)(F)F)nn([C@H](C)c5ccc(Cl)cc5Cl)c4n3)C2)C1 [Example 102, 1-((R)-1-(2,4-dichlorophenyl)ethyl)-6-(3-((R)-1-isopropylpiperidin-3-yl)azetidin-1-yl)-3-(trifluoromethyl)-1H-pyrazolo[3,4-b]pyrazine]
13 | < 100 nM | C[C@H](c1ccc(Cl)cc1Cl)n1nc(C(F)(F)F)c2ncc(N3CC([C@H]4CCCN(C[C@@H](C)O)C4)C3)nc21 [Example 103, (R)-1-((R)-3-(1-(1-((R)-1-(2,4-dichlorophenyl)ethyl)-3-(trifluoromethyl)-1H-pyrazolo[3,4-b]pyrazin-6-yl)azetidin-3-yl)piperidin-1-yl)propan-2-ol]
14 | < 100 nM | C[C@H](O)CN1CCC[C@H](C2CN(c3cnc4c(C(F)(F)F)nn([C@H](C)c5ccc(Cl)cc5Cl)c4n3)C2)C1 [Example 104, (S)-1-((R)-3-(1-(1-((R)-1-(2,4-dichlorophenyl)ethyl)-3-(trifluoromethyl)-1H-pyrazolo[3,4-b]pyrazin-6-yl)azetidin-3-yl)piperidin-1-yl)propan-2-ol]
15 | < 100 nM | CC(=O)N[C@H](C)CN1CCC[C@H](C2CN(c3cnc4c(C(F)(F)F)nn([C@H](C)c5ccc(Cl)cc5Cl)c4n3)C2)C1 [Example 105, N—((R)-1-((R)-3-(1-(1-((R)-1-(2,4-dichlorophenyl)ethyl)-3-(trifluoromethyl)-1H-pyrazolo[3,4-b]pyrazin-6-yl)azetidin-3-yl)piperidin-1-yl)propan-2-yl)acetamide]
